Reference: US7083983B2, “Inhibitors of the interaction between P53 and MDM2” (Cancer Research Campaign Technology Limited, priority 1996, dated 2006)
Where no end group is shown, it is not given here.

Experiments:
[1] = system: GST-hdm2, MBP-hdm2 or TRX-hdm2; experiment: solution phase phage ELISA with hdm2 fusion proteins; type: binding, human; conditions: phages preincubated in solution with GST-hdm2, MBP-hdm2 or TRX-hdm2
Procedure: GST-, MBP-, TRX-hdm2 or baculovirus produced mdm2 (Sf9 cell extract) diluted in PBST-M are reacted in solution with hdm2- or GST-binding phage overnight at 4° C. Simultaneously, ELISA plates are coated with 100 μl Rabbit anti-mouse antibodies (DAKO, Z0259) 1:1000 in 0.1 M NaHCO3, pH 9.6. The plates are blocked as usual and incubated with monoclonal anti-mdm2 antibodies (hybridoma supernatant 1:5 diluted in PBST-M) for one hour. For the titration ELISA, purified SMP14 (8 μg/ml in PBS) is used to coat the plate directly. In either case, the pre-incubated phage-hdm2 samples are transfered to the coated and blocked plate and incubated for two hours at room temperature. Bound phages are detected as described.
For these experiment clones BB2/BB11 (GST binding control phage) and BB3/BB10 (hdm2 phage) are chosen. Phages are preincubated in solution with GST-hdm2, MBP-hdm2 or TRX-hdm2 and the phage-hdm2 complexes are transfered to wells which contain different monoclonal anti-mdm2 antibodies bound to the solid phase via anti-mouse antibodies. Bound phages are detected. […] All three anti-mdm2 antibodies used (SMP 14, 4B2, 3G5) are able to bind to hdm2 complexed with GST-phage. Antibody SMP14 is commercially available and described in Picksley et al., Oncogene 9, 2523–2529 (1994) incorporated by reference above. […] Phage-hdm2 complexes are pulled down by solid phase SMP14 and bound phages are detected. […]

[2] = system: T22 cells stably transfected with pRGC ΔFosLacz, a p53 responsive β-galactosidase reporter; experiment: p53 responsive β-galactosidase reporter after microinjection into T22 cells; type: cell-based, mouse; conditions: low level p53 and mdm2, 24 hours
Description: (§3) Antibodies or DNA encoding the described binding elements may be microinjected into Vrn.6 cells, a transformed rat thyroid epithelial cell line and T22 cells, a mouse prostrate derived cell line both cell lines being stably transfected with pRGC ΔFosLacz, a p53 responsive β-galactosidase reporter. […] Vrn.6 tolerate high levels of wild type p53 and overexpress MDM2 at a protein level. T22 cells typically contain low levels of p53 and mdm2.
(§4) For microinjection, cells may be seeded into tissue culture dishes and grown to 60–70% confluence. Microinjection may be performed using an Eppendorfer microinjection system (Microinjector 5242, Micromanipulator 5170) mounted to an Axiovert light microscope (Zeiss) having a heated stage.
(§5) Purified mouse monoclonal antibodies 3G5 and 4B2 may be injected intranuclearly and cytoplasmicly in PBS at a concentration of 1.3 mg/ml. Plasmid DNA encoding for TIP 12/1, TIP wt and Trx may be injected intronuclearly in water at a concentration of 0.25 mg 7 ml. Following microinjection, fresh medium may be added to the cell cultures and the cultures further incubated for 24 hours.
(§6) To detect β-galactosidase activity, cells may be washed with PBS and fixed with 2% formaldehyde, /0.2% glutaraldehyde in PBS for 5 minutes on ice. […]

[3] = system: MCF-7 cells, pRGCΔFosLacZ reporter; experiment: transient transfection, p53 reporter induction in MCF-7 cells; type: cell-based; conditions: transfected plasmid DNA, 48 hours after transfection
Procedure: (§1) The OSA cell line contains a highly elevated mdm2 level due to gene amplification (Florence et al., 1994). The U2-OS cell line has no gene amplification for mdm2 but has elevated levels of dmd2-mRNA (Florence et al. 1994). The MCF-7 cell line contains heterogenously expressed low levels of wild type p53 and no reported mdm2 elevation.
(§2) For transient transfection and reporter induction, cells are seeded into 6 well plates at 1.5×10^6 cell per well. They are grown to a density of 80% confluence and transfected using different Lipophilic reagents such Lipofectin and Lipofectamin from Promega or Dosper and Dotap from Boehringer. […] Two to four hours after transfection, complete medium is added. Forty-eight hours after transfection β-galactosidase activity is measured using […] (Boehringer) as a substrate. Cells are scraped into PBS and centrifuged. Pellets from each well are dissolved in 50 μl of Reporter Lysis buffer (Promega) and incubated on ice for 15 minutes. Soluble Lysates are incubated with CPRG in 100 mM phosphate buffer, pH 7.0. Optical Density at 595 nm is measured 1 to 24 hours later.

[4] = system: U2-OS cells, pRGCΔFosLacZ reporter; experiment: transient transfection, p53 reporter induction in U2-OS cells; type: cell-based; conditions: transfected plasmid DNA, 48 hours after transfection
Procedure: as §1, §2

[5] = system: OSA cells, pRGCΔFosLacZ reporter; experiment: transient transfection, p53 reporter induction in OSA cells; type: cell-based, human; conditions: highly elevated mdm2, transfected plasmid DNA, 48 hours after transfection
Procedure: as §1, §2

[6] = system: Vrn.6 cells stably transfected with pRGC ΔFosLacz, a p53 responsive β-galactosidase reporter; experiment: p53 responsive β-galactosidase reporter after microinjection into Vrn.6 cells; type: cell-based, rat; conditions: Vrn.6 cells having overexpressed MDM2; injected intranuclearly; 24 hours
Description: as §3, §4, §5, §6

Sequence of GST-hdm2, MBP-hdm2 or TRX-hdm2 (Q00987 1-188 limits assumed): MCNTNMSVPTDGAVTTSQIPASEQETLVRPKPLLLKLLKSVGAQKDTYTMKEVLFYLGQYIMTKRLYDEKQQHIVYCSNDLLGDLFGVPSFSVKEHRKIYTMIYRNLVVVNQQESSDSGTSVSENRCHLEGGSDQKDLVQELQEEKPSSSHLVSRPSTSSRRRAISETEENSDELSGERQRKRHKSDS

Substance	binding of phage to hdm2 fusion proteins [1]	β-galactosidase response (blue stained cells) of p53 reporter [2]	induction of the p53 reporter (β-galactosidase activity) [3]	induction of the p53 reporter (β-galactosidase activity) [4]	induction of the p53 reporter (β-galactosidase activity) [5]	β-galactosidase response (blue stained cells) of p53 reporter [6]
PAFSRFWSADLSAGAH [BB3]	recognizes all three hdm2 fusion proteins					
TIP 12/1: binding element: E. coli thioredoxin presenting the peptide insert of clone 12/1 in its active site, delivered as encoding plasmid DNA (MPRFMDYWEGLN; not fully specified; printed as M-P-R-F-M-D-Y-W-E-G-L-N)		strong positive response	most induction	most induction	Lower induction	
Trx: negative control binding element comprising thioredoxin without a peptide insert [reference compound]		No response				not a positive response
